Data from ChEMBL document CHEMBL3045196, “Relationships between Insecticidal Activity of 6-Alkylthio-2-pyridyl Methanesulfonates and Acetylcholinesterase Inhibition of their Sulfone Derivatives against Nephotettix cincticeps” (J Pestic Sci, 1990).

Experiments:
Nephotettix cincticeps [1] = experiment: Insecticidal activity against resistant Nephotettix cincticeps Izumi (green rice leafhopper) assessed as mortality by foliar-spray; assay type: functional
Nephotettix cincticeps [2] = experiment: Insecticidal activity against susceptible Nephotettix cincticeps Ageo (green rice leafhopper)assessed as mortality by foliar-spray; assay type: functional
[3] = Methanol-water partition coefficient, log k of the compound; assay type: physicochemical
[4] = biological target: Ace-orthologous acetylcholinesterase (Nephotettix cincticeps) (UniProt Q9NJH6); experiment: Inhibition of susceptible Nephotettix cincticeps Ageo (green rice leafhopper) acetylcholinesterase activity
[5] = biological target: Ace-orthologous acetylcholinesterase (Nephotettix cincticeps) (UniProt Q9NJH6); experiment: Inhibition of susceptible Nephotettix cincticeps Izumi (green rice leafhopper) acetylcholinesterase activity

Chain of Ace-orthologous acetylcholinesterase (Nephotettix cincticeps) (Q9NJH6 20-677 limits assumed): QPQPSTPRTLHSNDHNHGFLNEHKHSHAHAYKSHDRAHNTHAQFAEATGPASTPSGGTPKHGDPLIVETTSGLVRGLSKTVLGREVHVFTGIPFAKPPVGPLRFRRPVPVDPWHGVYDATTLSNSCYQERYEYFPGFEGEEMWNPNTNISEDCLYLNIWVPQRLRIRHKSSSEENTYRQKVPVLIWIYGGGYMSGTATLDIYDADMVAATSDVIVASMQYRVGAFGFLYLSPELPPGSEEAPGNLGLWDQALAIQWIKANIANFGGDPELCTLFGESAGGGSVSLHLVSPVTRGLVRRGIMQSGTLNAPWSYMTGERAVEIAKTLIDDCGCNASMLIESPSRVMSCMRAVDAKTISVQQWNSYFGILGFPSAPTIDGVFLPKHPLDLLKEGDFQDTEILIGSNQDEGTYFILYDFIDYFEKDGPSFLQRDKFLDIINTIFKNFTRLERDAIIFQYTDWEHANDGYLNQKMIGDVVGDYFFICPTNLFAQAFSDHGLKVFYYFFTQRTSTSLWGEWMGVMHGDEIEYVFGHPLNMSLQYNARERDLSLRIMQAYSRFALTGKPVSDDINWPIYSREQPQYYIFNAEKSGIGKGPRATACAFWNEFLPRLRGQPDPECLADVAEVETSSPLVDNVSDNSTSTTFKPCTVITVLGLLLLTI

| Structure (SMILES) | log(1/LD50) (Nephotettix cincticeps [1]) | log(1/LD50) (Nephotettix cincticeps [2]) | log K [3] | log(1/I50) [4] | log(1/I50) [5] |
| --- | --- | --- | --- | --- | --- |
| CC(C)CSc1cccc(OS(C)(=O)=O)n1 [6-(ISOBUTYLTHIO)PYRIDIN-2-YL METHANESULFONATE] | 7.95 | 8.16 | 0.399 | – | – |
| CC(C)Sc1cccc(OS(C)(=O)=O)n1 | 7.39 | 8.43 | 0.163 | – | – |
| CCCCSc1cccc(OS(C)(=O)=O)n1 | 7.41 | 8.3 | 0.425 | – | – |
| CCCCS(=O)(=O)c1cccc(OS(C)(=O)=O)n1 | – | – | 0.293 | 8.8 | 8.22 |
| CS(=O)(=O)Oc1cccc(SCC2CC2)n1 | 7.8 | 8.64 | 0.192 | – | – |
| CCCS(=O)(=O)c1cccc(OS(C)(=O)=O)n1 | – | – | -0.036 | 8.7 | 8.08 |
| CC(C)CCS(=O)(=O)c1cccc(OS(C)(=O)=O)n1 | – | – | 0.576 | 7.77 | 7.8 |
| CS(=O)(=O)Oc1cccc(SC2CCCC2)n1 | 7.82 | 8.39 | 0.447 | – | – |
| CSCCSc1cccc(OS(C)(=O)=O)n1 | 6.54 | 7.7 | -0.174 | – | – |
| CC(C)S(=O)(=O)c1cccc(OS(C)(=O)=O)n1 | – | – | -0.115 | 9.52 | 8.3 |
| CS(=O)(=O)Oc1cccc(S(=O)(=O)Cc2ccccc2)n1 | – | – | 0.35 | 8.82 | 8.09 |
| CS(=O)(=O)Oc1cccc(SC2CCCCC2)n1 | 7.28 | 7.69 | 0.664 | – | – |
| CS(=O)(=O)Oc1cccc(Sc2ccccc2)n1 | 7.3 | 8.53 | 0.268 | – | – |
| CCCC(C)Sc1cccc(OS(C)(=O)=O)n1 (stereo not drawn) | 7.41 | 7.65 | 0.59 | – | – |
| CCS(=O)(=O)c1cccc(OS(C)(=O)=O)n1 | – | – | -0.358 | 8.02 | 7.22 |
| CS(=O)(=O)Oc1cccc(S(C)(=O)=O)n1 | – | – | -0.602 | 7.17 | – |
| CCCCCS(=O)(=O)c1cccc(OS(C)(=O)=O)n1 | – | – | 0.632 | 8.15 | 8 |

| Structure (SMILES) | log(1/LD50) (Nephotettix cincticeps [1]) | log(1/LD50) (Nephotettix cincticeps [2]) | log K [3] | log(1/I50) [4] | log(1/I50) [5] |
| --- | --- | --- | --- | --- | --- |
| CSc1cccc(OS(C)(=O)=O)n1 | 5.74 | 6.71 | 0.259 | – | – |
| CC(C)(C)Sc1cccc(OS(C)(=O)=O)n1 | 6.87 | 7.82 | 0.277 | – | – |
| CC(C)CS(=O)(=O)c1cccc(OS(C)(=O)=O)n1 | – | – | 0.274 | 9.15 | 8.4 |
| CS(=O)(=O)Oc1cccc(SCc2ccccc2)n1 | 6.97 | 7.91 | 0.33 | – | – |
| CCCC(C)S(=O)(=O)c1cccc(OS(C)(=O)=O)n1 (stereo not drawn) | – | – | 0.507 | 9.3 | 9.7 |
| CS(=O)(=O)Oc1cccc(S(=O)(=O)c2ccccc2)n1 | – | – | 0.236 | 8.14 | 8 |
| CCCCCSc1cccc(OS(C)(=O)=O)n1 | 6.74 | 7.43 | 0.649 | – | – |
| CCC(C)Sc1cccc(OS(C)(=O)=O)n1 (stereo not drawn) | 7.68 | 8.24 | 0.37 | – | – |
| CC(C)(C)CSc1cccc(OS(C)(=O)=O)n1 | 6.69 | 8.26 | 0.558 | – | – |
| CCCSc1cccc(OS(C)(=O)=O)n1 | 7.65 | 8.57 | 0.196 | – | – |
| CS(=O)(=O)Oc1cccc(S(=O)(=O)C2CCCC2)n1 | – | – | 0.274 | 9.15 | 9.11 |
| CC(C)CCSc1cccc(OS(C)(=O)=O)n1 | 6.44 | 7.24 | 0.614 | – | – |
| CS(=O)(=O)Oc1cccc(S(=O)(=O)C2CCCCC2)n1 | – | – | 0.565 | 9.02 | 9.1 |
| CC(C)(C)S(=O)(=O)c1cccc(OS(C)(=O)=O)n1 | – | – | 0.085 | 7.28 | 7.07 |
| CCC(C)S(=O)(=O)c1cccc(OS(C)(=O)=O)n1 (stereo not drawn) | – | – | 0.188 | 8.7 | 9 |
| CCSc1cccc(OS(C)(=O)=O)n1 | 7.33 | 8.14 | -0.034 | – | – |
